Our source for the IC50 values is US7411093B2, “Aminocycloalkanes as DPP-IV inhibitors” (Hoffman-La Roche Inc., priority 2004, dated 2008).

For this test, the target named is T1, human DPP-IV (Homo sapiens, UniProt P27487).
T1 construct: made in house; host or cells: Pichia pastoris (secreted, purified from culture medium)
T1 sequence (P27487 31-766): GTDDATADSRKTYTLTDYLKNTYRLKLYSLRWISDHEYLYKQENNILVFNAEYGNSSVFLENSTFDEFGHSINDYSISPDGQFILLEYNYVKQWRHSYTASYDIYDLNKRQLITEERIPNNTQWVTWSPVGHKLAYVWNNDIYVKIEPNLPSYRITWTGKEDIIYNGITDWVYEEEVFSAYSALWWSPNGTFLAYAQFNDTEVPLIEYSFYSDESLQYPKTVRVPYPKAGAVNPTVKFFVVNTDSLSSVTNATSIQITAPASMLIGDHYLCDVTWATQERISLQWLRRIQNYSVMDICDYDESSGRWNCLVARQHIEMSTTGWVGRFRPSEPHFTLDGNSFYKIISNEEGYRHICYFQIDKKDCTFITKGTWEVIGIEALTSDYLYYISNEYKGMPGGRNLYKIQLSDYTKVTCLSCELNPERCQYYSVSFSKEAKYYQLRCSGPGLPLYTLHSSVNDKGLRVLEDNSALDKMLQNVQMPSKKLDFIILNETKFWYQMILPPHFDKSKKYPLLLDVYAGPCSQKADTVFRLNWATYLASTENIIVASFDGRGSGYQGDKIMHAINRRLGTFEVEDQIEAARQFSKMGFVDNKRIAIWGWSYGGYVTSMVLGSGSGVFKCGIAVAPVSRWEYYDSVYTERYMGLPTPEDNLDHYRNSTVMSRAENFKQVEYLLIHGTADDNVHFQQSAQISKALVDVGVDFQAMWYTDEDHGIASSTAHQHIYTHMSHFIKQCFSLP
As to the kind of experiment: DPP-IV activity assay (fluorogenic or colorimetric substrate). In kind it is biochemical. The settings on record: natural human DPP-IV from human plasma pool or recombinant human DPP-IV; 37° C., pH 7.8. Here is the method: Activity of DPP-IV inhibitors are tested with natural human DPP-IV derived from a human plasma pool or with recombinant human DPP-IV. Human citrate plasma from different donors is pooled, filtered through a 0.2 micron membrane under sterile conditions and aliquots of 1 ml are shock frozen and stored at −120° C. until used. In the colorimetric DPP-IV assay 5 to 10 μl human plasma and in the fluorometric assay 1.0 μl of human plasma in a total assay volume of 100 μl is used as an enzyme source. The cDNA of the human DPP-IV sequence of amino acid 31- to 766, restricted for the N-terminus and the transmembrane domain, is cloned into Pichia pastoris. Human DPP-IV is expressed and purified from the culture medium using conventional column chromatography including size exclusion and anion and cation chromatography. The purity of the final enzyme preparation of Coomassie blue SDS-PAGE is >95%. In the colorimetric DPP-IV assay 20 ng rec.-h DPP-IV and in the fluorometric assay 2 ng rec-h DPP-IV in a total assay volume of 100 μl is used as an enzyme source.
In the fluorogenic assay Ala-Pro-7-amido-4-trifluoromethylcoumarin (Calbiochem No 125510) is used as a substrate. A 20 mM stock solution in 10% DMF/H2O is stored at −20° C. until use. In IC50 determinations a final substrate concentration of 50 μM is used. In assays to determine kinetic parameters as Km, Vmax, Ki, the substrate concentration is varied between 10 μM and 500 μM.
In the colorimetric assay H-Ala-Pro-pNA.HCl (Bachem L-11115) is used as a substrate. A 10 mM stock solution in 10% MeOH/H2O is stored at −20° C. until use. In IC50 determinations a final substrate concentration of 200 μM is used. In assays to determine kinetic parameters as Km, Vmax, Ki, the substrate concentration is varied between 100 μM and 2000 μM.
Fluorescence is detected in a Perkin Elmer Luminescence Spectrometer LS 50B at an excitation wavelength of 400 nm and an emission wavelength of 505 nm continuously every 15 seconds for 10 to 30 minutes. Initial rate constants are calculated by best fit linear regression.
The absorption of pNA liberated from the colorimetric substrate is detected in a Packard SpectraCount at 405 nm continuously every 2 minutes for 30 to 120 minutes. Initial rate constants are calculated by best fit linear regression.
DPP-IV activity assays are performed in 96 well plates at 37° C. in a total assay volume of 100 μl. The assay buffer consists of 50 mM Tris/HCl, pH 7.8 containing 0.1 mg/ml BSA and 100 mM NaCl. […]
IC50 determinations of test compounds are calculated by non-linear best fit regression of the DPP-IV inhibition of at least 5 different compound concentrations. Kinetic parameters of the enzyme reaction are calculated at least 5 different substrate concentrations and at least 5 different test compound concentrations.
In the case of `N[C@@H]1CCCC[C@@H]1c1cc(Cl)ccc1Cl` (relative stereo) [Example 7, (cis)-2-(2,5-Dichloro-phenyl)-cyclohexylamine], the IC50 worked out at 130 nM.

Turning to `Cc1ccc(C)c([C@@H]2CCCC[C@H]2N)c1` (relative stereo) [Example 18, (trans)-2-(2,5-Dimethyl-phenyl)-cyclohexylamine], the IC50 was found to be 160 nM.

With `N[C@@H]1CCCCC[C@H]1c1cc(Cl)ccc1Cl` (relative stereo) [Example 24, (trans)-2-(2,5-Dichloro-phenyl)-cycloheptylamine], the IC50 amounted to 720 nM.

As to `CC1=CC(=O)N([C@@H]2CCCC[C@H]2N)C1` (relative stereo) [Example 30, trans-1-(2-Amino-cyclohexyl)-4-methyl-1,5-dihydro-pyrrol-2-one], the IC50 amounted to 730 nM.
